Results on 8 compounds are retold here after ChEMBL document CHEMBL3286257, “Development of second generation EP2 antagonists with high selectivity” (Eur J Med Chem, 2014).

Structures are written as SMILES. Converted amounts (≈) assume the structure as drawn.

The subject of one series is EP2 receptor. The experiment in a line: Therapeutic index, ratio of CC50 for rat C6 cells to KB for EP2 receptor (unknown origin). The series is classed as cell-based. As to conditions: read-out: TI.
The species named for series [1] is Homo sapiens. Description: Selectivity index, ratio of KB for DP1 receptor (unknown origin) to KB for EP2 receptor (unknown origin).
Series [2] addresses Prostaglandin E2 receptor EP4 subtype (Homo sapiens) (UniProt P35408). The experiment in a line: Antagonist activity at EP4 receptor (unknown origin) expressed in rat C6 cells assessed as inhibition of PGE2-induced response. In kind it is cell-based.
Series [3] has as its target Prostacyclin receptor (Homo sapiens) (UniProt P43119). The experiment in a line: Antagonist activity at IP receptor (unknown origin) expressed in rat C6 cells by TR-FRET assay. In kind it is cell-based. A general note: Time-resolved FRET reads energy transfer from a long-lived donor to a nearby acceptor.
The species named for series [4] is Homo sapiens. Description: Selectivity index, ratio of KB for IP receptor (unknown origin) to KB for EP2 receptor (unknown origin).
Series [5] addresses Prostaglandin E2 receptor EP2 subtype (Homo sapiens) (UniProt P43116). The experiment in a line: Antagonist activity at EP2 receptor (unknown origin) expressed in rat C6 cells assessed as inhibition of PGE2-induced response. The series is classed as cell-based.
Series [6] is filed under the species Homo sapiens. The experiment in a line: Selectivity index, ratio of KB for EP4 receptor (unknown origin) to KB for EP2 receptor (unknown origin).
Series [7] deals with T1, Prostaglandin D2 receptor (Homo sapiens) (UniProt Q13258).
T1 sequence (whole entry): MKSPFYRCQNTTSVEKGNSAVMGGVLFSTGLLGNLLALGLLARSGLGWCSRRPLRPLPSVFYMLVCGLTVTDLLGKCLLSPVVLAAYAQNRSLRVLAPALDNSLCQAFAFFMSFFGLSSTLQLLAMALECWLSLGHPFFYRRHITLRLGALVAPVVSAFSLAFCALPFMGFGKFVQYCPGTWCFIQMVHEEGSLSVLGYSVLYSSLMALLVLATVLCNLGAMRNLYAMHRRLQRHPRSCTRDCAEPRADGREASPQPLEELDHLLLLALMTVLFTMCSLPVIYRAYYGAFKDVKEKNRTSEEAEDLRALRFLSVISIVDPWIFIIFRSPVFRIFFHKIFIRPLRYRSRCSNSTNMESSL
The experiment in a line: Antagonist activity at DP1 receptor (unknown origin) expressed in rat C6 cells by TR-FRET assay. In kind it is cell-based.

Series [8] in a line: (§1) Cytotoxicity against rat C6 cells. The series is classed as cell-based. The following applies: C6 cells.
Series [9] is described as follows: Metabolic stability of the compound in human liver microsomes assessed as compound remaining at 10 uM after 60 mins. The following applies: read-out: Stability. In kind it is ADME. On the technique in general: Liver microsomes are a subcellular fraction often used to study metabolism.
Series [10] in a line: Metabolic stability of the compound in mouse liver microsomes assessed as compound remaining at 10 uM after 60 mins. The series is classed as ADME. The following applies: read-out: Stability.
The nature of series [11]: Metabolic stability of the compound in human liver microsomes assessed as compound remaining at 10 uM after 15 mins. In kind it is ADME. The following applies: read-out: Stability.
Series [12] in a line: Metabolic stability of the compound in mouse liver microsomes assessed as compound remaining at 10 uM after 30 mins. The following applies: read-out: Stability. In kind it is ADME.
Series [13] deals with Prostaglandin E2 receptor EP2 subtype (Homo sapiens) (UniProt P43116). Description: Competitive antagonist activity at human EP2 receptor assessed as inhibition of PGE2-induced response.
Sequence of Prostaglandin E2 receptor EP2 subtype (Homo sapiens) (P43116 whole entry): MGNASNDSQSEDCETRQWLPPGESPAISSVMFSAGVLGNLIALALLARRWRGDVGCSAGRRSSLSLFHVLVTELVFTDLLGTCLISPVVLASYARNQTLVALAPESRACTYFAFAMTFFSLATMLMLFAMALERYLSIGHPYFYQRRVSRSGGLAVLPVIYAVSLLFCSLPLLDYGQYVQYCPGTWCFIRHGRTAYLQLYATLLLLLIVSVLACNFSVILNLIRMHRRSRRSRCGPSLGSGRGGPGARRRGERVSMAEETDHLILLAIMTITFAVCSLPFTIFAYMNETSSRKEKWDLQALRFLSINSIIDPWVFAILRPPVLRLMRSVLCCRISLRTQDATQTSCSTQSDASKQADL
The nature of series [14]: Metabolic stability of the compound in human liver microsomes assessed as compound remaining at 10 uM after 30 mins. In kind it is ADME. The following applies: read-out: Stability.
Series [15] can be described thus: Aqueous solubility of the compound by nephelometry method. In kind it is physicochemical. The following applies: buffer.
The next series has as its system C6. The description is as §1. In kind it is cell-based. As to conditions: c6.
The nature of series [16]: Metabolic stability of the compound in mouse liver microsomes assessed as compound remaining at 10 uM after 15 mins. The following applies: read-out: Stability. In kind it is ADME.
A short description of series [17]: AUC (infinity) in C57Bl/6 mouse at 5 mg/kg, ip. In kind it is ADME, organism-based. More on the design: time infinity, dose 5 mg/kg, route intraperitoneal. The following applies: plasma.
A short description of series [18]: Terminal half life in C57Bl/6 mouse at 5 mg/kg, ip. In kind it is ADME, organism-based. More on the design: dose 5 mg/kg, route intraperitoneal. As to conditions: in vivo, read-out: beta t1/2 (converted).
A short description of series [19]: AUClast in C57Bl/6 mouse at 5 mg/kg, ip. More on the design: time 0 - last, dose 5 mg/kg, route intraperitoneal. In kind it is ADME, organism-based. The following applies: plasma.
A short description of series [20]: Cmax in C57Bl/6 mouse at 10 mg/kg, po. The series is classed as ADME, organism-based. More on the design: dose 10 mg/kg, route oral. The following applies: in vivo.
A short description of series [21]: Cmax in C57Bl/6 mouse at 5 mg/kg, ip. The series is classed as ADME, organism-based. More on the design: dose 5 mg/kg, route intraperitoneal. As to conditions: in vivo.

For orientation: Kb means the equilibrium dissociation constant of an antagonist, usually derived from a functional assay. A word on the CC50: it is the concentration at which the toxic effect on the cells reaches its halfway point. A low value points to greater toxicity to the cells. As a reminder, the solubility (kinetic) is solubility judged after dilution from a stock solution rather than from solid. As usually defined, the AUC(0-inf) is the area under the concentration-time curve extrapolated to infinity. Read a high AUC(0-inf) as high exposure. Broadly, the AUC(0-t) is the area under the concentration-time curve up to a stated or last time point. For orientation: Cmax means the highest concentration seen after dosing.

Sequence of Prostacyclin receptor (Homo sapiens) (P43119 whole entry): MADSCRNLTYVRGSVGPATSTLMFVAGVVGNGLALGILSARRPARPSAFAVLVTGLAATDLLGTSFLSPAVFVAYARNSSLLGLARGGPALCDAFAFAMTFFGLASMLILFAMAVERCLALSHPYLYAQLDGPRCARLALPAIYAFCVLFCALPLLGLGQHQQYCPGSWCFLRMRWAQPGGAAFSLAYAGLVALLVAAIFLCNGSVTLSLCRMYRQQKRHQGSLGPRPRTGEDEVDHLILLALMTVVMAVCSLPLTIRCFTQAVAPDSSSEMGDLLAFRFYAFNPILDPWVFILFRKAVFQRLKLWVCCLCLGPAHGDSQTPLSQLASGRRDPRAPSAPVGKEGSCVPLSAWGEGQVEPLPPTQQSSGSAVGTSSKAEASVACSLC
Sequence of Prostaglandin E2 receptor EP4 subtype (Homo sapiens) (P35408 whole entry): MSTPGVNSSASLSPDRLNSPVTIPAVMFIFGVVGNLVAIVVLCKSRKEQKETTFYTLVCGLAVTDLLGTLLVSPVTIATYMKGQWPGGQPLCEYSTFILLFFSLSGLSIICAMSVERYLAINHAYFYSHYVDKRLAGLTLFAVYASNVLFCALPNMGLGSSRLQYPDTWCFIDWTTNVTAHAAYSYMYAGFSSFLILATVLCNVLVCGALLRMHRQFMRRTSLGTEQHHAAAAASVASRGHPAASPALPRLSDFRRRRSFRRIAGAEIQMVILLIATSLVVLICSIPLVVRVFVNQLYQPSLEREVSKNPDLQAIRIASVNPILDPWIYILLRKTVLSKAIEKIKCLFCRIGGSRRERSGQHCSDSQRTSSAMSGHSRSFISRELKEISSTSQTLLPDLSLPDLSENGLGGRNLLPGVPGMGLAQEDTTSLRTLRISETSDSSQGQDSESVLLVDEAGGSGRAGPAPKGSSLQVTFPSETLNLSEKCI

On to `Cc1cc2ccccc2n1CCNC(=O)c1ccc(N2CCOCC2)c(F)c1`, for which the selectivity ratio in the series with EP2 receptor was above 19400. In addition, the Ratio in the series listed under Homo sapiens [1] came out at 85; in the series filed under Homo sapiens [4], 217; in the series listed under Homo sapiens [6] it was 565. Also, the antagonist dissociation constant (Kb) in series [2] was 14.5 µM; in series [3], 5.6 µM; in series [5], 0.0257 µM; in series [7] it was 2.2 µM. In addition, the CC50 in series [8] is above 500 µM.
`CCN(CC)c1ccc(C(=O)NCCn2c(C)cc3ccccc32)cc1`: the remaining at 1 h, 10 µM in series [9] was found to be 4%; in [10] it was 3%. Besides, the selectivity ratio with EP2 receptor amounted to 119000. Also, the Ratio is 1220 in the series filed under Homo sapiens [1], 2960 in the series listed under Homo sapiens [4] and 11600 in the series filed under Homo sapiens [6]. The Kb in [2] stood at 31.3 µM; in series [3] it was 8 µM; in series [13], 0.0175 µM; in [5], 0.0027 µM; in series [7] it was 3.19 µM. Further, the values for the remaining at […], 10 µM in series [11] and in series [16] were 19% and below 14%, respectively. Besides, the remaining at 0.5 h, 10 µM in [12] and in [14] was 9% throughout. Also, the kinetic solubility in series [15] was below 25 µM. In addition, half-maximal cytotoxicity in the series on C6 (CC50) was put at 320 µM.
In the case of `Cc1cc2ccccc2n1CCNC(=O)c1ccc(N2CCC(C(=O)O)CC2)cc1`, the figures for the remaining at 1 h, 10 µM in series [9] and in [10] were 95% and 86%, respectively. The remaining at […], 10 µM in series [11] and in [16] was 97% in each case. The remaining at 0.5 h, 10 µM in [12] amounted to 92%; in [14], 97%. Also, the antagonist dissociation constant (Kb) in series [13] stood at 0.097 µM; in series [5] it was 0.0897 µM. The kinetic solubility in series [15] was above 750 µM.
As to `Cc1cc2ccccc2n1CCNC(=O)c1ccc(-c2nnn[nH]2)cc1`, the values for the remaining at 1 h, 10 µM in series [9] and in series [10] were 73% and 57%, respectively. For the same compound, the AUC(0-inf) in [17] was determined as 1600 ng·h/mL. Further, the half-life in [18] is 18 min. The AUC(0-t) in series [19] turned out to be 1580 ng·h/mL. The figures for the Cmax in series [20] and in [21] were 134 nM and 2040 ng/mL, respectively. Also, the remaining at […], 10 µM in series [11] came to 96%; in series [16], 85%. Also, the remaining at 0.5 h, 10 µM was found to be 75% in series [12] and 87% in series [14]. The Kb in [13] is 0.0164 µM; in series [7], 0.66 µM. The compound further yielded a kinetic solubility in series [15] of 257 µM (≈ 89 µg/mL). The CC50 in series [8] is above 300 µM.
With `Cc1cc2ccccc2n1CCNC(=O)c1ccc(N2CCOCC2)cc1`, the remaining at 1 h, 10 µM was 22% in series [9] and 0% in [10]. Moreover, in the series on EP2 receptor, the selectivity ratio amounted to 30100. For the same compound, the values for the Ratio in the series filed under Homo sapiens [1], in the series filed under Homo sapiens [4] and in the series listed under Homo sapiens [6] were 533, 206 and 2190, respectively. The Kb in series [2] turned out to be 21 µM; in [3], 1.98 µM; in series [13], 0.0161 µM; in series [5], 0.0096 µM; in [7], 5.21 µM. For the same compound, the remaining at […], 10 µM came out at 58% in series [11] and 8% in series [16]. For the same compound, the results for the remaining at 0.5 h, 10 µM in series [12] and in series [14] were 5% and 38%, respectively. In series [15], this compound came in with a solubility (kinetic) of 67 µM (≈ 24.4 µg/mL). The compound also registered a CC50 in the series on C6 of 289 µM.
With `CCCN(CCC)c1ccc(C(=O)NCCn2c(C)cc3ccccc32)cc1`, the remaining at 1 h, 10 µM in [9] was determined as 5%; in series [10], 6%. The selectivity ratio in the series on EP2 receptor amounted to 28100. The Ratio in the series filed under Homo sapiens [1] stood at 298; in the series listed under Homo sapiens [4], 95; in the series filed under Homo sapiens [6] it was 1320. Moreover, the Kb stood at 15.5 µM in series [2], 1.12 µM in series [3], 0.0119 µM in [5] and 3.55 µM in series [7]. In addition, the figures for the remaining at […], 10 µM in series [11] and in series [16] were 40% and 30%, respectively. For the same compound, the remaining at 0.5 h, 10 µM in series [12] came to 26%; in [14] it was 20%. In series [15], this compound came in with a kinetic solubility below 25 µM. For the same compound, in the series on C6, the cytotoxic concentration (CC50) stood at 332 µM.
With `CCN(CC)c1ccc(C(=O)NCCc2c(C)[nH]c3ccccc23)cc1`, the remaining at 1 h, 10 µM in [9] and in series [10] was 5% each time. For the same compound, in the series with EP2 receptor, the selectivity ratio was above 72500. In addition, the Ratio came out at 1370 in the series filed under Homo sapiens [1] and 6940 in the series listed under Homo sapiens [6]. Moreover, the Kb was 48 µM in series [2], 0.0163 µM in series [13], 0.0069 µM in series [5] and 9.48 µM in [7]. In addition, the results for the remaining at […], 10 µM in series [11] and in series [16] were 40% and 34%, respectively. Further, the remaining at 0.5 h, 10 µM in series [12] is 19%; in [14], 20%. Also, the kinetic solubility in [15] was below 25 µM. Also, the CC50 in series [8] was above 500 µM.
Take `Cc1cc2ccccc2n1CCNC(=O)c1ccc(N2CCCC2)cc1`: the values for the remaining at 1 h, 10 µM in series [9] and in series [10] were 1.4% and 18%, respectively. Moreover, the selectivity ratio in the series on EP2 receptor came out at 16100. Besides, the Ratio in the series filed under Homo sapiens [1] is above 516; in the series filed under Homo sapiens [4], 570; in the series listed under Homo sapiens [6], 1160. In addition, the Kb in series [2] was 28.7 µM; in series [3], 14.2 µM; in [5], 0.0247 µM; in series [7], above 10 µM. In addition, the remaining at […], 10 µM in series [11] came out at 22%; in series [16], 52%. Moreover, the remaining at 0.5 h, 10 µM in series [12] came out at 32%; in series [14], 12%. This compound showed a solubility (kinetic) in series [15] below 25 µM. Half-maximal cytotoxicity with C6 (CC50) was put at 337 µM.
